Data taken from paper PMC4106981 (Neuropharmacology, 2014).
Structures can show the parent of a compound that is named as a salt.

Tests used:
Male ICR mice [1] = test: Nicotine conditioned place preference; format: in vivo, mouse
[2] = Plasma nicotine and cotinine levels in the CPP test; format: in vivo, mouse
human CYP2A6 = details: ref Zhang et al., 2001; Damaj et al., 2007; cited from earlier work
Male ICR mice [3] = test: Activity counts in the drug-paired compartment on CPP test day; format: in vivo, mouse; details: mean ± S.E.M., n=6-8
Male ICR mice [4] = test: Mecamylamine-precipitated nicotine withdrawal: elevated plus maze; format: in vivo, mouse
Male ICR mice [5] = test: Mecamylamine-precipitated nicotine withdrawal: somatic signs; format: in vivo, mouse; details: methoxsalen 15 mg/kg i.p. 15 min before nicotine 2 mg/kg s.c. three times daily for 4 days; mecamylamine 2 mg/kg s.c. on day 5
Male ICR mice [6] = details: chronic nicotine 36 mg/kg/day in minipumps for 7 days, after removing the mini pumps
Male ICR mice [7] = test: Spontaneous nicotine withdrawal and its reversal: hot plate hyperalgesia; format: in vivo, mouse; details: chronic nicotine 36 mg/kg/day in minipumps for 7 days, after removing the mini pumps
[8] = CYP2A(4/5) null mouse; ref Wei et al., 2013; cited from earlier work

| SMILES | Nicotine conditioned place preference (Male ICR mice [1]; methoxsalen 45 mg/kg i.p. 15 min prior to nicotine 0.1 mg/kg s.c.) | Nicotine conditioned place preference (Male ICR mice [1]; methoxsalen 15 and 30 mg/kg i.p. 15 min prior to nicotine 0.1 mg/kg s.c.) | Effect on nicotine plasma levels ([2]; highest dose of methoxsalen (45 mg/kg i.p.) before nicotine 0.1 mg/kg s.c.) | Effect on nicotine plasma levels ([2]; methoxsalen 15, 30, 45 mg/kg i.p. 15 min before nicotine 0.1 mg/kg s.c., blood 20 min after nicotine, last conditioning day) | Inhibition of human CYP2A6 (human CYP2A6) | Activity counts in the drug-paired compartment on test day (Male ICR mice [3]; methoxsalen 15 mg/kg i.p. + nicotine 0.1 mg/kg s.c.) | Activity counts in the drug-paired compartment on test day (Male ICR mice [3]; methoxsalen 15 mg/kg i.p. + saline) | Activity counts in the drug-paired compartment on test day (Male ICR mice [3]; methoxsalen 30 mg/kg i.p. + nicotine 0.1 mg/kg s.c.) | Activity counts in the drug-paired compartment on test day (Male ICR mice [3]; methoxsalen 30 mg/kg i.p. + saline) | Activity counts in the drug-paired compartment on test day (Male ICR mice [3]; methoxsalen 45 mg/kg i.p. + nicotine 0.1 mg/kg s.c.) | Activity counts in the drug-paired compartment on test day (Male ICR mice [3]; methoxsalen 45 mg/kg i.p. + saline) | Number Crossovers (Mean ± SEM) in the plus-maze test (Male ICR mice [4]; Methoxsalen 15 mg/kg i.p. / Vehicle / Mecamylamine 2 mg/kg s.c., 5 min, n=5-7) | Average time spent in open arms (elevated plus maze) (Male ICR mice [4]; methoxsalen 15 mg/kg i.p. 15 min before nicotine 2 mg/kg s.c. three times daily for 4 days, mecamylamine 2 mg/kg s.c. on day 5) | Somatic withdrawal signs (Male ICR mice [5]) | Nicotine conditioned place preference (Male ICR mice [1]; nicotine 0.1 mg/kg s.c. alone (vehicle pretreatment), vs vehicle-treated group) | Number of somatic signs in spontaneous withdrawal (Male ICR mice [6]) | Time spent on the hot-plate in spontaneous withdrawal (Male ICR mice [7]) | Decrease in rate of nicotine clearance [8] |
| --- | --- | --- | --- | --- | --- | --- | --- | --- | --- | --- | --- | --- | --- | --- | --- | --- | --- | --- |
| COc1c2occc2cc2ccc(=O)oc12 [Methoxsalen, 8-methoxypsoralen] | no longer significant | produced a significant CPP | doubled | significantly increased | potent inhibitor | 524 ± 69 | 561 ± 83 | 488 ± 111 | 470 ± 105 | 513 ± 103 | 503 ± 89 | 6.0 ± 0.8 | further decrease | significant somatic withdrawal signs | – | – | – | – |
| CN1CCC[C@H]1c1cccnc1 [Nicotine, (−)-1-Methyl-2-(3-pyridyl) pyrrolidine (+)-bitartrate salt] | – | – | – | – | – | – | – | – | – | – | – | – | – | – | did not induce place preference | significantly increased | decreased | 90% |
